One experiment concerns tumor endothelial cells (CT26.CL25 colon cancer tumor). Kind of experiment: Colon CT26 ex vivo model of tumor angiogenesis. The conditions noted are these: Mus musculus, CT26, 48 h, read-out: Cell death. In kind it is cell-based. On the procedure: This example describes a procedure to prepare a primary tumor angiogenesis model for assessing the efficacy of anti-cancer candidate agents.
1. The day before the experiment, spray all necessary tools with 70% ethanol and sterilize them under UV light overnight, including blade, dissecting and micro-dissecting scissors and […]. Place 24-well dishes at 4° C. to pre-chill plates and thaw Matrigel 24 hours before tumor dissection.
2. Spray 70% ethanol on working bench. Prepare two sterile petri dishes with 10 mL sterile PBS. Steps 3 and 4 are for mouse tumor models. For fresh human tumor, directly go to step 5.
3. Euthanize the tumor-bearing mice. Spray 70% ethanol on the mouse and remove the tumor using sterilized dissecting tools (avoid the fur). Rinse the tumor in petri dish with sterile PBS to remove ethanol and fur. Transfer the tumor to a new petri dish with PBS for dissection. Place the dish on ice.
4. Using pre-chilled sterile pipet tips to seed regular Matrigel in 24 well plates on ice. Matrigel (30 μL) is dropped in the middle of each well without touching the edge of the well (avoid introducing bubbles if possible).
5. Cut the tumor in halves using the sterile blade. Identify and isolate healthy tumor tissue that is not necrotic and is within the tumor capsule. Cut the healthy tumor tissue into small pieces. For instance, a suitable size for the tumor tissue is 0.5 mm (H)×0.5 mm (L)×0.3 mm (D) with a total volume of 0.075 mm^3.
6. Gently transfer and embed each tumor piece in the Matrigel drop in the 24-well plate. Place the embedded piece in the bottom and middle of each Matrigel drop. Keep the plate on ice all the time.
7. After seeding the tumor pieces, plates are incubated in a 37° C. cell culture incubator without medium for 10 minutes in order for the Matrigel to solidify.
8. Endothelial Growth Medium (0.5 mL) is added to each well and incubated at 37° C. with 5% CO2. Wait until the new endothelial cells have grown out of the tumor or are larger than 3 mm in diameter until treatment. This usually takes 4 days for the LL2 Lewis lung cancer model and 7 days for the CT26 colon cancer model. For human tumor models, the growth time is typically 2-3 weeks, depending on the tumor type. Media is changed every 4 days during prolonged culture. Typically, when the tumor tissue grows to 2 mm in diameter, it is good for drug testing. A size of about 3 mm in diameter can make visualization easier.
9. When the assay is ready to be analyzed for cell death (e.g., 48 hours after drug addition), prepare the dye mixture by mixing 6 μL of green dye to stain live cells (5 mg/mL Fluorescein diacetate or FDA in DMSO) with 30 μL of red dye (2.5 mg/mL Propidium iodide or PI in PBS) to stain dead cells in an Eppendorf tube. The FDA dye needs to be stored frozen in a −20° C. freezer because it has a labile ester bond.
10. Add 1 μL of the dye mixture to each well of the 24-well dish. It is usually performed one 24-well dish at a time given the amount of time needed to take pictures (the green dye is not as stable in the cells in the long term).
11. Gently rock the dish a few times to mix the dye with the media in the wells and incubate the dish at 37° C. for 10 min (too long incubation can make the green signal too intense).
12. Wash each well with 0.5 mL of sterile PBS and then add 0.5 mL of phenol red free SFM to each well. Alternatively 0.5 mL of regular Endothelial Cell Growth Media can be added to each well if this well needs to be continuously maintained after the experiment.
13. Look through all wells on an inverted microscope using the 2× objective lens to observe morphological changes.
14. Taking pictures in the red and green channels would allow not only the recording of the result but also more accurate quantitation of the result. To take pictures for all the wells, first pick a well that has robust red and green signals. […]
For the molecule `CN1CCCN(c2c(S(=O)(=O)c3ccc([N+](=O)[O-])cc3)cnc3ccc(OC(F)(F)F)cc23)CC1` [compound 60, 4-(4-methyl-1,4-diazepan-1-yl)-3-((4-nitrophenyl)sulfonyl)-6-(trifluoromethoxy)quinoline], the cytotoxicity at 40 µM worked out at 5%. `CCCCOc1ccc2ncc(S(=O)(=O)c3ccc(OC)c(OC)c3)c(N(CC)CC)c2c1` [compound 123, 6-butoxy-3-((3,4-dimethoxyphenyl)sulfonyl)-N,N-diethylquinolin-4-amine]: the cytotoxicity at 40 µM is 20%. The same measure, in the same setting: as for `CCCCN(CCCC)c1c(S(=O)(=O)c2ccc(OC)c(OC)c2)cnc2ccc(SC)cc12` [compound 124, N,N-dibutyl-3-((3,4-dimethoxyphenyl)sulfonyl)-6-(methylthio)quinolin-4-amine], the figure is 20%; as for `CCOC(=O)c1ccc2ncc(S(=O)(=O)c3ccc(CC)cc3)c(N3CCC(O)(c4ccc(CC)cc4)CC3)c2c1` [compound 128, ethyl 4-(4-(4-ethylphenyl)-4-hydroxypiperidin-1-yl)-3-((4-ethylphenyl)sulfonyl)quinoline-6-carboxylate], 10%; as for `CCc1ccc(C2(O)CCN(c3c(S(=O)(=O)c4ccc(OC)cc4)cnc4ccc(OC(F)(F)F)cc34)CC2)cc1` [compound 129, 4-(4-ethylphenyl)-1-(3-((4-methoxyphenyl)sulfonyl)-6-(trifluoromethoxy)quinolin-4-yl)piperidin-4-ol], 0%. Same read-out and setting: as for `CCOC(=O)c1ccc2ncc(S(=O)(=O)c3ccc(CC)cc3)c(N3CCC(N4CCC(O)CC4)CC3)c2c1` [compound 130, ethyl 3-((4-ethylphenyl)sulfonyl)-4-(4-hydroxy-[1,4′-bipiperidin]-1′-yl)quinoline-6-carboxylate], the figure is 40%. Same read-out and setting: with `CCOC(=O)c1ccc2ncc(S(=O)(=O)c3ccc(CC)cc3)c(N3CCCN(CCN(CC)CC)CC3)c2c1` [compound 131, ethyl 4-(4-(2-(diethylamino)ethyl)-1,4-diazepan-1-yl)-3-((4-ethylphenyl)sulfonyl)quinoline-6-carboxylate] the figure was 50%. As for `CCOC(=O)c1ccc2ncc(S(=O)(=O)c3ccc(CC)cc3)c(N3CCC(OCCN(CC)CC)CC3)c2c1` [compound 132, ethyl 4-(4-(2-(diethylamino)ethoxy)piperidin-1-yl)-3-((4-ethylphenyl)sulfonyl)quinoline-6-carboxylate], the cytotoxicity at 40 µM was 40%. With `CCOC(=O)c1ccc2ncc(S(=O)(=O)c3ccc(CC)cc3)c(N3CCCC(O)C3)c2c1` (stereo not drawn) [compound 135, ethyl 3-((4-ethylphenyl)sulfonyl)-4-(3-hydroxypiperidin-1-yl)quinoline-6-carboxylate], the cytotoxicity at 40 µM came out at 30%.

Another experiment concerns tumor endothelial cells (LL/2 lung cancer tumor). The experiment can be described thus: Lung LL2 ex vivo model of tumor angiogenesis. In kind it is cell-based, mouse. The conditions noted are these: Mus musculus, Endothelial cell, 48 h, read-out: Cell death. In outline: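 Read-out is live/dead fluorescence imaging (fluorescein diacetate green, propidium iodide red, 10 min at 37° C) at 2×, taken e.g. 48 h after drug addition. Fragments of mouse LL2 tumor are cultured in Matrigel with endothelial growth medium, usually 4 days, until new endothelial cells grow out, then treated.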
`CCCCCCCCCCCCCCOc1ccc(S(=O)(=O)c2cnc3ccc([S+](C)[O-])cc3c2N2CCC(N3CCC(N4CCCCC4)CC3)CC2)cc1F` (stereo not drawn) [compound 366, 4-([1,4′:1′,4″-terpiperidin]-1″-yl)-3-((3-fluoro-4-(tetradecyloxy)phenyl)sulfonyl)-6-(methylsulfinyl)quinoline]: the cytotoxicity at 20 µM amounted to 10%. On the same count and under the same terms, with `CCCCCCCCCCCCCCOc1ccc(S(=O)(=O)c2cnc3ccc([S+](C)[O-])cc3c2N2CCC(N3CCC(N4CCCC(O)C4)CC3)CC2)cc1F` (stereo not drawn) [compound 367, 1″-(3-((3-fluoro-4-(tetradecyloxy)phenyl)sulfonyl)-6-(methylsulfinyl)quinolin-4-yl)-[1,4′:1′,4″- terpiperidin]-3-ol] the figure was 5%; with `CCCCCCCCCCCCOc1ccc(S(=O)(=O)c2cnc3ccc([S+](C)[O-])cc3c2N2CCC(N3CCC(N4CCN(CCO)CC4)CC3)CC2)cc1F` (stereo not drawn) [compound 368, 2-(4-(1′-(3-((4-(dodecyloxy)-3-fluorophenyl)sulfonyl)-6-(methylsulfinyl)quinolin-4-yl)-[1,4′-bipiperidin]-4-yl)piperazin-1-yl)ethanol], 20%. Same read-out and setting: as for `CCCCCCCCCCCCOc1ccc(S(=O)(=O)c2cnc3ccc([S+](C)[O-])cc3c2N2CCC(N3CCC(N4CCN(C)CC4)CC3)CC2)cc1F` (stereo not drawn) [compound 370, 3-((4-(dodecyloxy)-3-fluorophenyl)sulfonyl)-4-(4-(4-methylpiperazin-1-yl)-[1,4′-bipiperidin]-1′-yl)-6-(methylsulfinyl)quinoline], the figure is 20%; as for `CCCCCCCCCCCCCCOc1ccc(S(=O)(=O)c2cnc3ccc([S+](C)[O-])cc3c2N2CCC(N3CCC(N4CCN(C)CC4)CC3)CC2)cc1F` (stereo not drawn) [compound 371, 3-((3-fluoro-4-(tetradecyloxy)phenyl)sulfonyl)-4-(4-(4-methylpiperazin-1-yl)-[1,4′-bipiperidin]-1′-yl)-6-(methylsulfinyl)quinoline], 30%.

Regarding `CCCCCCCCCCCCOc1ccc(S(=O)(=O)c2cnc3ccc([S+](C)[O-])cc3c2N2CCC(N3CCC(N4CCC(O)CC4)CC3)CC2)cc1F` (stereo not drawn) [compound 372, 1″-(3-((4-(dodecyloxy)-3-fluorophenyl)sulfonyl)-6-(methylsulfinyl)quinolin-4-yl)-[1,4′:1′,4″- terpiperidin]-4-ol], the cytotoxicity at 20 µM was 20%.

Consider `CCCCCCCCCCCCCCOc1ccc(S(=O)(=O)c2cnc3ccc([S+](C)[O-])cc3c2N2CCC(N3CCC(N4CCC(O)CC4)CC3)CC2)cc1F` (stereo not drawn) [compound 373, 1″-(3-((3-fluoro-4-(tetradecyloxy)phenyl)sulfonyl)-6-(methylsulfinyl)quinolin-4-yl)-[1,4′:1′,4″- terpiperidin]-4-ol], for which the cytotoxicity at 20 µM came to 20%. Same read-out and setting: as for `CCCCCCCCCCCCOc1ccc(S(=O)(=O)c2cnc3ccc([S+](C)[O-])cc3c2N2CCC(N3CCC(N4CCC(O)CC4)CC3)CC2)cc1` (stereo not drawn) [compound 374, 1″-(3-((4-(dodecyloxy)phenyl)sulfonyl)-6-(methylsulfinyl)quinolin-4-yl)-[1,4′:1′,4″-terpiperidin]-4-ol], the figure is 20%; as for `CCCCCCCCCCCCCCOc1ccc(S(=O)(=O)c2cnc3ccc([S+](C)[O-])cc3c2N2CCC(N3CCC(N4CCC(O)CC4)CC3)CC2)cc1` (stereo not drawn) [compound 375, 1″-(6-(methylsulfinyl)-3-((4-(tetradecyloxy)phenyl)sulfonyl)quinolin-4-yl)-[1,4′:1′,4″-terpiperidin]-4-ol], 50%; as for `CCCCCCCCCCCCCCCCOc1ccc(S(=O)(=O)c2cnc3ccc([S+](C)[O-])cc3c2N2CCC(N3CCN(CCO)CC3)CC2)cc1` (stereo not drawn) [compound 376, 2-(4-(1-(3-((4-(hexadecyloxy)phenyl)sulfonyl)-6-(methylsulfinyl)quinolin-4-yl)piperidin-4-yl)piperazin-1-yl)ethanol], 10%.

Consider `CCCCCCCCCCCCCCCCOc1ccc(S(=O)(=O)c2cnc3ccc([S+](C)[O-])cc3c2N2CCC(N3CCC(N4CCCCC4)CC3)CC2)cc1` (stereo not drawn) [compound 377, 4-([1,4′:1′,4″-terpiperidin]-1″-yl)-3-((4-(hexadecyloxy)phenyl)sulfonyl)-6-(methylsulfinyl)quinoline], for which the cytotoxicity at 20 µM came out at 10%. Still for that read-out and setting: as for `CCCCCCCCCCCCCCCCOc1ccc(S(=O)(=O)c2cnc3ccc([S+](C)[O-])cc3c2N2CCC(N3CCC(N4CCCC(O)C4)CC3)CC2)cc1` (stereo not drawn) [compound 378, 1″-(3-((4-(hexadecyloxy)phenyl)sulfonyl)-6-(methylsulfinyl)quinolin-4-yl)-[1,4′:1′,4″- terpiperidin]-3-ol], the figure is 30%.

Source of the values: patent publication US11884647B2, “Compounds and methods for targeting pathogenic blood vessels” (THE REGENTS OF THE UNIVERSITY OF CALIFORNIA, priority 2019, dated 2024).
